Data from US20230002393A1, “CDK KINASE INHIBITOR” (BEIJING BENICALL BIOTECH CO., LTD., priority 2019, published 2023).

How the values were obtained:
[1] = molecular target: T1, CDK6/CyclinD1 (Homo sapiens, UniProt Q00534); experiment: In vitro cell-free CDK6/CyclinD1 kinase activity assay (TR-FRET); assay type: biochemical; conditions: ATP at Km
T1 construct: purchased Carna 04-114
Summary of the method: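 TR-FRET readout: reaction stopped with EDTA-containing detection buffer holding peptide antibody and Sa-XL665, 1 h at room temperature, then 665/615 nm emission ratio (excitation 330 nm) taken as activity. 8-10 compound concentrations from DMSO stocks at 200× working concentration; IC50 fitted versus no-inhibitor and no-enzyme controls.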

[2] = test system: MCF-7 cells; experiment: Cell viability assay, MCF-7 cells (CellTiter-Glo, 168 h); assay type: cell-based; conditions: Homo sapiens, MCF7
Summary of the method: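 MCF-7 cells (about 3,000/well) were incubated with compound at 8 concentrations for 168 h at 37 °C, 5% CO2. Viability was read by CellTiter-Glo luminescence, and IC50 intervals were derived from survival rates.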

T1 sequence (Q00534 whole entry): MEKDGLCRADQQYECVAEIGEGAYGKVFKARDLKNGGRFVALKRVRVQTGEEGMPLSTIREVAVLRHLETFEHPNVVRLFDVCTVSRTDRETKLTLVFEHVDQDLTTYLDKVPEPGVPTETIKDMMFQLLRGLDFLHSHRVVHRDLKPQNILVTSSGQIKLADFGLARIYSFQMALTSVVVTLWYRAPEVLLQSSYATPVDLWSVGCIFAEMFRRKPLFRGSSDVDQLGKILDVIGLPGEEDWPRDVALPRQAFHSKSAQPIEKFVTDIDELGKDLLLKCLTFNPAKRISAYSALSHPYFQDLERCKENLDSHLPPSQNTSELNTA
T1 sequence (P24385 whole entry partner): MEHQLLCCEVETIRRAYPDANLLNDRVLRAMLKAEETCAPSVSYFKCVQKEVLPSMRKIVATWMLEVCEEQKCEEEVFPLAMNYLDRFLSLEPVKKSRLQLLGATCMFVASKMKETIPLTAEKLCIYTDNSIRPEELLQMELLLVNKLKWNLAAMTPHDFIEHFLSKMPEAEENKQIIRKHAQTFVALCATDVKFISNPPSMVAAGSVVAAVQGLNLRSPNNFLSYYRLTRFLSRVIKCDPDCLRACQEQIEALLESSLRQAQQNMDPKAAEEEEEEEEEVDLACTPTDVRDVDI

| Compound | IC50 [1] [nM] | IC50 [2] [nM] |
| --- | --- | --- |
| CN(C)C(=O)c1cc2cnc(Nc3ccc(N4CCC5(CC4)OCCO5)cn3)nn2c1C1=CCCC1 [Example 37] | < 100 | 500 to 2500 |
| CN(C)C(=O)c1cc2cnc(Nc3ccc(N4CCC5(CC4)CNC5)cn3)nn2c1-c1ccc(Cl)cc1 [Example 44] | < 100 | < 500 |
| CN(C)C(=O)c1cc2cnc(Nc3ccc(N4CCNC5(CC5)C4)cn3)nn2c1-c1ccc(Cl)cc1 [Example 45] | < 100 | 500 to 2500 |
| N#Cc1cc2cnc(Nc3ccc(N4CCNCC4)cc3)nn2c1C1=CCCC1 [Example 2] | < 100 | < 500 |
| CN1CCN(c2ccc(Nc3ncc4ccc(C5=CCCC5)n4n3)cc2)CC1 [Example 5] | 100 to 1000 | < 500 |
| N#Cc1cc2cnc(Nc3ccc(N4CCNCC4)cn3)nn2c1C1=CCC(=O)CC1 [Example 30] | 100 to 1000 | 2500 to 10000 |
